{"source": "ChEMBL document CHEMBL1123899", "about": "“Nucleic acid related compounds. 51. Synthesis and biological properties of sugar-modified analogues of the nucleoside antibiotics tubercidin, toyocamycin, sangivamycin, and formycin” (1987)", "data": [{"system": "Vaccinia virus", "experiment": "Minimum inhibitory concentration required to reduce vaccinia virus(VV) induced cytopathogenicity by 50%", "assay_type": "functional", "settings": "Orthopoxvirus vaccinia", "units": {"MIC50": "µg/mL"}, "values": [{"smiles": "N#Cc1cn(C2OC(CO)CC2O)c2ncnc(N)c12", "note": "(configuration not stated)", "MIC50": 0.1}, {"smiles": "Nc1ncnc2c1ccn2C1OC(CO)CC1O", "note": "(configuration not stated)", "MIC50": 1.5}, {"smiles": "Nc1ncnc2c(C3OC(CO)CC3O)n[nH]c12", "note": "(configuration not stated)", "MIC50": "> 400"}, {"smiles": "NC(=O)c1cn([C@@H]2O[C@H](CO)[C@@H](O)[C@@H]2O)c2ncnc(N)c12", "MIC50": 0.2}, {"smiles": "Nc1ncnc2c1ccn2[C@@H]1O[C@H](CO)[C@H](O)[C@H]1O", "MIC50": 0.03}, {"smiles": "Nc1ncnc2c1ccn2[C@@H]1O[C@H](CO)[C@@H](O)[C@@H]1O", "MIC50": 40}, {"smiles": "Nc1ncnc2c([C@H]3C[C@H](O)[C@@H](CO)O3)n[nH]c12", "MIC50": "> 400"}, {"smiles": "NC(=O)c1cn([C@H]2C[C@H](O)[C@@H](CO)O2)c2ncnc(N)c12", "MIC50": 0.4}, {"smiles": "N#Cc1cn([C@H]2C[C@H](O)[C@@H](CO)O2)c2ncnc(N)c12", "MIC50": 0.1}, {"smiles": "N#Cc1cn([C@@H]2O[C@H](CO)[C@@H](O)[C@@H]2O)c2ncnc(N)c12", "MIC50": 1}, {"smiles": "NC(=O)c1cn(C2OC(CO)CC2O)c2ncnc(N)c12", "note": "(configuration not stated)", "MIC50": 2}, {"smiles": "Nc1ncnc2c1ccn2[C@H]1C[C@H](O)[C@@H](CO)O1", "note": "[2'-Deoxytubercidin]", "MIC50": 10}, {"smiles": "Nc1ncnc2c([C@@H]3O[C@H](CO)[C@@H](O)[C@H]3O)[nH]nc12", "note": "[FORMYCIN]", "MIC50": 7}, {"smiles": "NC(=O)c1ncn([C@@H]2O[C@H](CO)[C@@H](O)[C@H]2O)n1", "note": "[RIBAVIRIN]", "MIC50": 20}, {"smiles": "NC(=O)c1cn([C@@H]2O[C@H](CO)[C@@H](O)[C@H]2O)c2ncnc(N)c12", "note": "[SANGIVAMYCIN]", "MIC50": 0.02}, {"smiles": "N#Cc1cn([C@@H]2O[C@H](CO)[C@@H](O)[C@H]2O)c2ncnc(N)c12", "note": "[TOYOCAMYCIN]", "MIC50": "> 0.04"}, {"smiles": "Nc1ncnc2c1ccn2[C@@H]1O[C@H](CO)[C@@H](O)[C@H]1O", "note": "[TUBERCIDIN]", "MIC50": 0.007}]}]}
